Test results as given in US9987296B2, “Compositions including anthocyanin or anthocyanidin for the prevention or treatment of Articular cartilage-associated conditions” (priority 2008, dated 2018).
“Also recorded” adds a separate entry of the source.

Experiments:
Format in all cases: cell-based
[1] = tested on: Human articular chondrocytes; experiment: MTT assay; conditions: human articular chondrocytes in culture, 96 hours
Procedure: Chondrocytes were isolated from non-arthritic regions of adult human articular cartilage (N=3 donors) and expanded in tissue culture flasks in DMEM supplemented with 10% calf serum.
The following compounds were provided by Chromadex, Inc. and tested from 1 uM to 500 uM:
Human articular chondrocytes were seeded in 96-well culture trays at a density of 5000 cells/well and incubated with the selected concentration of the anthocyanin for 4 days. At the end of the 4 day period, fresh MTT (3(4,5-Dimethylthiazol-2-yl)-2,5-diphenyltetrazolium bromide) was made in PBS and filter sterilized. MTT (25 ul per well) was added to the cell culture and incubated for 5 hours in the CO2 incubator at 37° C. Yellow MIT is reduced to purple formazan in living cells. The supernatant from each well was removed, and 200 Ill of DMSO was added. A multi-channel pipette was used to dissolve crystals. The microplate was placed back into the incubator at 37° C. for 5 min. Formazan levels in each well were read using a spectrophotometer at 550 nm wavelength.

[2] = tested on: human osteoarthritic cartilage explants; experiment: Matrix synthesis (35S uptake) in human osteoarthritic cartilage explants
Procedure: Bovine cartilage explants (full thickness, 6 mm in diameter) were harvested from fresh femoral condyles. Human osteochondral plugs were harvested using 6 mm osteochondral grafting donor tool (Arthrez 1981-06S, Naples, Fla.) from femoral condyles retrieved from total knee arthroplasty surgery that had been stored in DMEM at 20 degrees C. for less than 24 hours. Full-thickness cartilage explants were cut from the subchondral bone. Each of the 6 mm cartilage disks were divided into 4 equal quadrants. Each quadrant was placed in a different experimental group. This allowed for a paired comparison and controlled for differences in grade of arthritis, thickness of cartilage, cell density, etc. The explants were washed 4-5 times with DMEM with 10% calf serum and were allowed to stabilize for 24 hours in a tissue culture incubator. Explants were then serum starved (0.1% calf serum) for 24 hours prior to commencement of cyanidin chloride treatment.
3 mL fresh media with 20 uCi/mL of ^35S-labeled sodium sulfate (NEX0414 Perkin Elmer, Boston, Mass.) (DMEM with 10% CS) was added to each of the explants along with 30 uL of 50 mM stock cyanidin chloride (MW 322.7 g/mole) solution (diluted in DMSO) (Chromadex Inc., Irvine, Calif.) to give the final cyanidin chloride concentration of (200 or 500 uM) in culture. Explants were subjected to cyanidin chloride treatment for 48 hours.
Radioactive media was aspirated after 48 hours and explants were washed in ice-cold 1×PBS for 10 minutes×3. Each cartilage explant quadrant was blotted dry and was placed in 500 uL of 2 mg/mL Proteinase K (Fisher Scientific, Fair Lawn, N.J.) in TE Buffer solution (10 mM Tris, 1 mM EDTA) and was allowed to rotate at 57 degrees C. for 24 hours in a hybridization oven until completely dissolved. Quantification of ^35S-labeled proteoglycans complexed to alcian blue by rapid filtration in multiwall plates was adopted and modified from Masuda et al Anal. Biochem 1994; 217:167-75. 75 uL of dilution buffer (50 mM Sodium Acetate pH^− 5.8. 0.5% Triton X-100) was added to each well of a 96 well plate (Millipore Multiscreen 96-well filtration system, Millipore, Billerica, Mass.) 25 uL of each digested cartilage explant sample was then loaded followed by 150 uL of 0.2% alcian blue solution (Alcian Blue 8GX electrophoresis grade, Sigma-Aldrich Inc., St. Louis Mo.) and was allowed to rotate for 1 hour at room temperature. The 96-well plate was then placed over a vacuum-manifold to aspirate the contents of the wells through the screen. The 3×200 uL vacuum washes with wash buffer (50 mM sodium acetate pI-I 5.8, 100 mM sodium sulfate, 50 mM MgCl2) were then performed. The 96-well filtration plate was then completely dried at 57 degrees C. for 5 minutes in a hybridization oven and was exposed to storage phosphor screen for 24 hours (Packard Instrument Company Inc., Meriden. Conn.). Phosphorimaging with Cyclone model A431200 (Packard Instrument Company Inc. Meriden, Conn.) was performed to quantify ^35S uptake by proteoglycans. ^35S uptake by proteoglycans in cartilage explants was normalized to DNA by Quant-iT ds DNA Assay Kit (Invitrogen Inc., Carlsbad Calif.).
Reported clinical experiments indicate that 10% dextrose injected in the joint can have a therapeutic effect on osteoarthritis. To test this effect, human osteoarthritic cartilage explants (Grade II) were treated with glucose at physiologic (0.45%) or were treated with supraphysiologic (2.5% and 5%) concentrations with 500 uM cyanidin chloride.

[3] = tested on: IGF-1; experiment: IGF-1 production by ELISA, human cartilage explants; conditions: for IGF-1 production compared to IL-1 alone: human cartilage explants, 5 or 50 ug/mL (FIGS. 7, 8)
Procedure: Full thickness cartilage slices (20-25 mg) were dissected from the cartilage using a sterile scalpel blade. Four to five cartilage pieces that were approximately equal in size and weight were transferred to each well of a 24-well, flat bottom plate (Nuns, Denmark) containing DMEM:F12 (1:1) supplemented with antibiotics and 10% FCS and cultured for 24 hours. Subsequently the cartilage explants were cultured overnight in serum free media. The cartilage explants were treated with IL-β alone or with IL-β positive test agents for 72 hours in serum free media. Explants cultured in the absence of IL-β or test agents were used as controls. Additionally, the actions of kuromanin or cyanidin chloride were examined independently of IL-β exposure (5 ng/mL). Where appropriate, explants were exposed to test agents 15 minutes prior to the treatment with IL-β. Total glycosaminoglycan present in the culture supernatant was estimated as described below.
(§1) Human IGF-1 label in chondrocytes culture or cartilage explant media was quantified using a commercially available Human IGF-1 ELISA kit (R& D Systems) per manufacturer's directions.

[4] = tested on: IGF-1; experiment: IGF-1 production by ELISA, cultured human chondrocytes; conditions: for IGF-1 production: cultured chondrocytes treated with compound, presence and absence of IL-1; for IGF-1 production compared to IL-1 alone: human chondrocytes in culture, 5 or 50 ug/mL (FIGS. 5, 6)
Procedure: Chondrocytes were prepared by the enzymatic digestion of knee cartilage, as previously described. (Ahmed S et al., J Nutr 2005 135:20962102). Chondrocytes were plated (1×10^6 cells/mL) in 35 mm culture dishes (BD, Mountain View, Calif.) and cultured in DMEM:F12 (Mediatech, Herndon, Va.) supplemented with 10% FCS and 1% Penn:Strep for 72 hrs at 37° C. and 5% CO2 in a tissue culture incubator. Chondrocytes were serum starved overnight and then exposed to either kuromanin or cyanidin chloride (5 or 50 ug/mL), progrado (2 or 10 ug/mL) alone or in combination in fresh serum-free medium for 1 hr prior to the addition of IL-β.
as §1

SMILES | non-toxic concentration [1] | synergy of cyanidin and glucose on matrix synthesis ([2]; cyanidin 500 uM combined with glucose) | matrix synthesis (35S uptake) ([2]; human OA Grade II explants, 500 uM at 0.45% glucose) | matrix synthesis (35S uptake) ([2]; human OA grade II-III explants, 500 uM) | IGF-1 production ([3]; explants, IL-1 with high dose 50 ug/mL) | IGF-1 production ([3]; explants, IL-1 with low dose 5 ug/mL) | basal IGF-1 production ([3]; explants, high dose alone) | IGF-1 production compared to IL-1 alone [3] | IGF-1 production (media levels) ([4]; IL-1 with high dose 50 ug/mL) | IGF-1 production (media levels) ([4]; IL-1 with low dose 5 ug/mL) | IGF-1 production [4] | IGF-1 production (media levels) ([4]; high dose (50 ug/mL) alone) | IGF-1 production compared to IL-1 alone [4] | matrix synthesis (35S uptake) ([2]; glucose 0.45% (low, physiologic)) | matrix synthesis (35S uptake) ([2]; supraphysiologic glucose (2.5% and 5%))
Oc1cc(O)c2cc(O)c(-c3ccc(O)c(O)c3)[o+]c2c1 [Cyanidin chloride] | 100 µM | did not have significant synergistic effect | no effect on matrix synthesis | no effect on human OA explants; also recorded: did not increase matrix synthesis in human OA tissue | no benefit was observed | restoration of control IGF-1 production | did not express basal IGF-1 production | increased; also recorded: greater than IL-1 alone when treated with cyanidin alone or in combination with IL-1 | no restoration of media IFG-1 levels | no restoration of media IFG-1 levels | Reduced production of IGF-1 | reduced IGF-1 production from control values | greater than IL-1 alone when treated with cyanidin alone at high levels and at low levels in combination with IL-1 | – | –
OC[C@H]1O[C@@H](Oc2cc3c(O)cc(O)cc3[o+]c2-c2ccc(O)c(O)c2)[C@H](O)[C@@H](O)[C@@H]1O.[Cl-] [Kuromanin chloride] | 100 µM | – | – | – | – | – | – | increased; also recorded: greater than IL-1 alone when treated with kuromanin alone or in combination with IL-1 | no effect over IL-1 | restoration of IGF-1 production | Reduced production of IGF-1 | reduced IGF-1 protein levels in the media to a similar level as to that seen with IL-1 | greater than IL-1 alone when treated with kuromanin at high levels and at low levels in combination with 1L-1 | – | –
O=C[C@H](O)[C@@H](O)[C@H](O)[C@H](O)CO [glucose] | – | – | – | – | – | – | – | – | – | – | – | – | – | stimulate matrix synthesis more than higher concentrations of glucose; also recorded: beneficial effect | reduced matrix synthesis; also recorded: suppressed matrix synthesis
